Results reported in patent publication US20160278375A1, “BISCATIONIC AND TRISCATIONIC AMPHIPHILES AS ANTIMICROBIAL AGENTS” (Temple University of the Commonwealth System of Higher …, priority 2013, published 2016).
Like-named read-outs stand apart in the source and are kept apart here.

Experiments:
Assay type in all cases: cell-based
[1] = tested on: Enterococcus faecalis (OG1RF); experiment: MIC determination by two-fold serial dilution in 96-well microtiter plates
Description: (§1) For the compounds above, respective minimum inhibitory concentration (MIC) values against the Gram-positive S. aureus, E. faecalis, Gram-negative E. coli and P. aeruginosa were determined, respectively, by standard methods. […] Cell viability was verified by serial dilution and plating on MH agar. Both aqueous and fresh media positive controls were performed for each trial. Overnight bacterial cultures of Staphylococcus aureus (SH1000), Enterococcus faecalis (OG1RF), Escherichia coli (MC4100), and Pseudomonas aeruginosa (PAO1-WT) were grown in Mueller-Hinton broth at 37° C., with all but E. faecalis under shaking Overnight cultures were diluted to approximately 10^6 cfu/mL as determined by OD measurement at 640 nm and plating on MH agar.
(§2) Each compound was serially diluted two-fold with water from 1 mM down to 1 μM yielding twelve dilutions per compound. In triplicate, 100 µL of each dilution were pipetted into the appropriate well of a 96-well microtiter plate, and then […] of overnight bacterial culture diluted to ca. 10^6 cfu/mL were inoculated into each well. Microtiter plates were incubated at 37° C. for 72 hours. Up to seven compounds were tested against one bacterial species at twelve decreasing concentrations per 96-well plate.

[2] = tested on: Escherichia coli (MC4100); experiment: as above; conditions: for MIC: Escherichia coli; for MIC E. coli: Table 2, trisamine compounds
Description: as §1, §2

[3] = tested on: Pseudomonas aeruginosa (PAO1-WT); experiment: as above
Description: as §1, §2

[4] = tested on: Staphylococcus aureus (SH1000); experiment: as above
Description: as §1, §2

[5] = tested on: S. aureus, E. faecalis, E. coli and P. aeruginosa; experiment: MIC determination, statements across the bacteria tested; conditions: S. aureus, E. faecalis, E. coli, P. aeruginosa; read-out: MIC values against all four bacterial species tested
Description: as §1, §2

[6] = Enterococcus faecalis, Table 1, 37° C., 72 hours, read-out: MIC, Gram positive E. faecalis
[7] = Table 1, 37° C., 72 hours, read-out: MIC, Gram negative E. coli
[8] = Pseudomonas aeruginosa, PAO1, Table 1, 37° C., 72 hours, read-out: MIC, Gram negative P. aeruginosa
[9] = Staphylococcus aureus, Table 1, 37° C., 72 hours, read-out: MIC, Gram positive S. aureus
[10] = 72 h, read-out: MIC, Gram negative E. coli
[11] = Table 2, trisamine compounds, read-out: MIC E faecalis
[12] = Table 2, trisamine compounds, read-out: MIC P aeruginosa
[13] = Table 2, trisamine compounds, read-out: MIC S. aureus

Row | SMILES | MIC [1, 6] [µM] | MIC [3, 8] [µM] | MIC [4, 9] [µM] | MIC [2, 10] [µM] | also measured
1 | CCCCCCCCCCCCCCCCCCCC[N+](C)(C)CCN(C)C [(20, 2, 0)] | 4 | 125 | 4 |  | MIC [2, 7]: 63 µM
2 | CCCCCCCCCCCCCC[N+](C)(C)CC[N+](C)(C)CCCCCCCC [(14, 2, 8)] | 2 | 4 | 1 | 2 | 
3 | CCCCCCCCCC[N+](C)(C)CCN(C)CC[N+](C)(C)CCCCCCCCCC.[Br-].[Br-] [10, 2, 0, 2, 10] |  |  |  |  | MIC [1, 11]: 8 µM; MIC E. coli [2]: 8 µM; MIC [3, 12]: 32 µM; MIC [4, 13]: 2 µM
4 | CCCCCCCCCCCCCCCC[N+](C)(C)CC[N+](C)(C)CCCCCCCCCCCCCC [(16, 2, 14)] | 2 | 63 | 8 | 16 | 
5 | CCCCCCCCCCCCCC[N+](C)(C)CC[N+](C)(C)CCCCCCCCCCCC [(14, 2, 12)] | 2 | 8 | 1 | 2 | 
6 | CCCCCCCCCCCCCC[N+](C)(C)CC[N+](C)(C)CCCCCCCCCC [(14, 2, 10)] | 1 | 4 | 4 | 2 | 
7 | CCCCCCCC[N+](C)(C)CC[N+](C)(C)CCCCCCCC [(8, 2, 8)] | 500 | 500 | 32 | 250 | 
8 | CCCCCCCCCCCCCCCCCCCC[N+](C)(C)CC[N+](C)(C)CCCCCCCC [(20, 2, 8)] | 4 | 32 | 4 | 16 | 
9 | CCCCCCCCCCCC[N+](C)(C)CCN(C)C [(12, 2, 0)] | 63 | 250 | 32 |  | MIC [2, 7]: 63 µM
10 | CCCCCCCCCCCCCCCC[N+](C)(C)CC[N+](C)(C)CCCCCCCCCC [(16, 2, 10)] | 4 | 32 | 4 | 8 | 
11 | CCCCCCCCCC[N+](C)(C)CC[N+](C)(C)CCCCCCCC [(10, 2, 8)] | 63 | 125 | 8 | 63 | 
12 | CCCCCCCCCCCCCCCCCC[N+](C)(C)CC[N+](C)(C)CCCCCCCC [(18, 2, 8)] | 2 | 32 | 2 | 8 | 
13 | CCCCCCCCCCCCCCCCCC[N+](C)(C)CC[N+](C)(C)CCCCCCCCCCCCCC [(18, 2, 14)] | 16 | 63 | 8 | 16 | 
14 | CCCCCCCCCCCCCCCCCCCC[N+](C)(C)CC[N+](C)(C)CCCCCCCCCCCCCC [(20, 2, 14)] | 16 | 63 | 8 | 16 | 
15 | CCCCCCCCCCCC[N+](C)(C)CC[N+](C)(C)CCCCCCCCCC [Compound (12, 2, 10)] |  |  |  |  | MIC [5]: ≤ 2 µM
16 | CCCCCCCCCCCCCCCCCC[N+](C)(C)CC[N+](C)(C)CCCCCCCCCCCCCCCC [(18, 2, 16)] | 32 | 63 | 16 | 32 | 
17 | CCCCCCCCCCCC[N+](C)(C)CC[N+](C)(C)CCCCCCCCCCCC [(12, 2, 12)] | 1 | 4 | 1 | 2 | 
18 | CCCCCCCCCCCC[N+](C)(C)CC[N+](C)(C)CCCCCCCCCC [(12, 2, 10)] | 2 | 2 | 1 | 2 | 
19 | CCCCCCCCCCCC[N+](C)(C)CC[N+](C)(C)CCCCCCCC [(12, 2, 8)] | 4 | 4 | 1 | 4 | 

Row | SMILES | MIC [1, 6] [µM] | MIC [3, 8] [µM] | MIC [4, 9] [µM] | MIC [2, 10] [µM] | also measured
20 | CCCCCCCCCCCC[N+](C)(C)CCN(C)CC[N+](C)(C)CCCCCCCCCCCC.[Br-].[Br-] [12, 2, 0, 2, 12] |  |  |  |  | MIC [1, 11]: 2 µM; MIC E. coli [2]: 1 µM; MIC [3, 12]: 4 µM; MIC [4, 13]: 1 µM
21 | CCCCCCCCCCCCCCCC[N+](C)(C)CCN(C)C [(16, 2, 0)] | 16 | 16 | 1 |  | MIC [2, 7]: 16 µM
22 | CCCCCCCCCCCCCCCC[N+](C)(C)CC[N+](C)(C)CCCCCCCCCCCC [(16, 2, 12)] | 4 | 32 | 8 | 8 | 
23 | CCCCCCCCCCCCCCCCCCCC[N+](C)(C)CC[N+](C)(C)CCCCCCCCCC [(20, 2, 10)] | 16 | 16 | 4 | 16 | 
24 | CCCCCCCCCCCCCCCCCC[N+](C)(C)CCN(C)C [(18, 2, 0)] | 4 |  | 2 |  | MIC [2, 7]: 63 µM; MIC ([3]; Table 1, 37° C., 72 hours, read-out: MIC, Gram negative P. aeruginosa): 63 µM
25 | CCCCCCCCCCC[N+](C)(C)CC[N+](C)(C)CCCCCCCCCC [(11, 2, 10)] |  |  |  | 4 | MIC ([1]; Enterococcus faecalis, 72 h, read-out: MIC, Gram positive E. faecalis): 4 µM; MIC ([3]; Pseudomonas aeruginosa, PAO1, 72 h, read-out: MIC, Gram negative P. aeruginosa): 4 µM; MIC ([4]; Staphylococcus aureus, 72 h, read-out: MIC, Gram positive S. aureus): 1 µM
26 | CCCCCCCCCCCCCCCCCC[N+](C)(C)CC[N+](C)(C)CCCCCCCCCCCCCCCCCC [(18, 2, 18)] | 63 | 500 | 32 | 250 | 
27 | CCCCCCCCCCCCCC[N+](C)(C)CCN(C)C [(14, 2, 0)] | 8 | 125 | 2 |  | MIC [2, 7]: 16 µM
28 | CCCCCCCCCCCCCCCCCC[N+](C)(C)CC[N+](C)(C)CCCCCCCCCCCC [(18, 2, 12)] | 4 | 32 | 4 | 16 | 
29 | CCCCCCCCCCCCCCCCCCCC[N+](C)(C)CC[N+](C)(C)CCCCCCCCCCCCCCCC [(20, 2, 16)] | 32 | 63 | 16 | 63 | 
30 | CCCCCCCCCCCCCC[N+](C)(C)CCN(C)CC[N+](C)(C)CCCCCCCCCCCCCC [14, 2, 0, 2, 14] |  |  |  |  | MIC ([1]; Enterococcus faecalis, Table 2, trisamine compounds, read-out: MIC E faecalis): 2 µM; MIC ([2]; read-out: MIC E. coli): 4 µM; MIC ([3]; Pseudomonas aeruginosa, PAO1, Table 2, trisamine compounds, read-out: MIC P aeruginosa): 32 µM; MIC ([4]; Staphylococcus aureus, Table 2, trisamine compounds, read-out: MIC S. aureus): 2 µM
31 | CCCCCCCCCC[N+](C)(C)CC[N+](C)(C)CCCCCCCCCC [(10, 2, 10)] | 8 | 8 | 2 | 16 | 
32 | CCCCCCCCCCCCC[N+](C)(C)CC[N+](C)(C)CCCCCCCCCC [Compound (13, 2, 10)] | 1 | 2 | 1 | 2 | 
33 | CCCCCCCCCC[N+](C)(C)CCN(C)C [(10, 2, 0)] | 250 | 250 | 63 |  | MIC [2, 7]: 250 µM
34 | CCCCCCCCCCCCCCCCCCCC[N+](C)(C)CC[N+](C)(C)CCCCCCCCCCCC [(20, 2, 12)] | 4 | 63 | 8 | 32 | 
35 | CCCCCCCCCCCCCCCCCC[N+](C)(C)CC[N+](C)(C)CCCCCCCCCC [(18, 2, 10)] | 2 | 32 | 4 | 16 | 
36 | CCCCCCCCCCCCCCCC[N+](C)(C)CC[N+](C)(C)CCCCCCCCCCCCCCCC [(16, 2, 16)] | 8 | 63 | 8 | 32 | 
37 | CCCCCCCCCCCCCCCC[N+](C)(C)CC[N+](C)(C)CCCCCCCC [(16, 2, 8)] | 2 | 4 | 2 | 2 | 
38 | CCCCCCCCCCCCCC[N+](C)(C)CC[N+](C)(C)CCCCCCCCCCCCCC [(14, 2, 14)] | 2 | 32 | 4 | 4 | 
